Reference: paper PMC9205463 (Cell reports, 2022)

Target: DDX41 (Homo sapiens, UniProt Q9UJV9)
Conditions: labelled compound ([γ-32P]ATP)

Chain of DDX41 (Q9UJV9 whole entry): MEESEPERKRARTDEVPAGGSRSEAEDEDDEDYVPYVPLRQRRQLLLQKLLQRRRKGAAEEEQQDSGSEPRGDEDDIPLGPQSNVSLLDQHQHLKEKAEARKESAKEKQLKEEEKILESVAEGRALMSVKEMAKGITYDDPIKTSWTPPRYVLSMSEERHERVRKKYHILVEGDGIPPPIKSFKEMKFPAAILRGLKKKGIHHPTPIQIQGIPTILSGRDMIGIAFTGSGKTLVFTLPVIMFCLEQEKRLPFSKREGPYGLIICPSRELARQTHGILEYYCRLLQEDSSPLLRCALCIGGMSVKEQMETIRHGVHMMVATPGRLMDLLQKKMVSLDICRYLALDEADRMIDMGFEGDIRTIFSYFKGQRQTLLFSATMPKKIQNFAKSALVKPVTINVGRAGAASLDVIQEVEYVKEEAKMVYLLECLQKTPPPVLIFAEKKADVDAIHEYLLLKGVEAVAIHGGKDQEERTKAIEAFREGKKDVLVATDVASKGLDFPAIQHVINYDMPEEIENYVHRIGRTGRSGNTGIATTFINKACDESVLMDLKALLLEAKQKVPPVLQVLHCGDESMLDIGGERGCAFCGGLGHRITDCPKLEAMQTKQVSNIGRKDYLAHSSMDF

Nc1ncnc2c1ncn2[C@@H]1O[C@H](COP(=O)(O)OP(=O)(O)OP(=O)(O)O)[C@@H](O)[C@H]1O [ATP]
filter binding (dot blot); ATP-agarose pull-down: we incubated the same amount of WT or R525H proteins with ATP agarose
